These are literature values, as cited in patent US4894235A, “Nifedipine-containing form of administration and method for its production” (Dr. Rentschler, Arzneimmittel GmbH & Co., priority 1984, dated 1990).

For data set [1] the following is noted: influence of light.
For data set [2] the following is noted: Ramsch, Selecta 10, p. 860, 1983.

For `COC(=O)C1=C(C)NC(C)=C(C(=O)OC)C1c1ccccc1[N+](=O)[O-]` [Nifedipine, 1,4-dihydro-2,6-dimethyl-4-(2-nitrophenyl)-3,5-pyridine-dicarboxylic acid-dimethylester], the photo-sensitivity entry in data set [1] is “very photo-sensitive”. Also, the “lower limit for blood plasma levels” value in data set [2] was 10 to 15 nanograms per milliliter.
